Measurements from PubChem BioAssay (NCI).
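Values below derive from 48-hour exposures of cells grown in 96-well plates, with endpoints linearly interpolated between the two concentrations bracketing the appropriate inhibition level. At the GI50, growth is halved. TGI is the concentration that stops growth completely.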

Columns and labels:
Experiment in all cases: growth of human tumour cells (NCI), 48 h
ACHN renal = tested on: ACHN renal
CCRF-CEM leukemia = tested on: CCRF-CEM leukemia
KM12 colon = tested on: KM12 colon
M14 melanoma = tested on: M14 melanoma
MCF7 breast = tested on: MCF7 breast
NCI-H522 lung = tested on: NCI-H522 lung
OVCAR-4 ovarian = tested on: OVCAR-4 ovarian
SF-539 CNS = tested on: SF-539 CNS
SNB-19 CNS = tested on: SNB-19 CNS
SNB-75 CNS = tested on: SNB-75 CNS

Row | SMILES | GI50 (ACHN renal) [µM] | TGI (ACHN renal) [µM] | GI50 (CCRF-CEM leukemia) [µM] | TGI (CCRF-CEM leukemia) [µM] | GI50 (KM12 colon) [µM] | TGI (KM12 colon) [µM] | GI50 (M14 melanoma) [µM] | TGI (M14 melanoma) [µM] | GI50 (MCF7 breast) [µM] | TGI (MCF7 breast) [µM] | GI50 (NCI-H522 lung) [µM] | TGI (NCI-H522 lung) [µM] | GI50 (OVCAR-4 ovarian) [µM] | TGI (OVCAR-4 ovarian) [µM] | GI50 (SF-539 CNS) [µM] | TGI (SF-539 CNS) [µM] | GI50 (SNB-19 CNS) [µM] | TGI (SNB-19 CNS) [µM] | GI50 (SNB-75 CNS) [µM] | TGI (SNB-75 CNS) [µM]
1 | Nc1ccc(C(OC(=O)c2cc3ccccc3c(Cc3c(O)c(C(=O)OC(c4ccc(N)cc4)(c4ccc(N)cc4)c4ccc(N)cc4)cc4ccccc34)c2O)(c2ccc(N)cc2)c2ccc(N)cc2)cc1 | 2.49 | 54 | 3.03 | > 100 | 0.608 | 12.7 | 0.993 | 19.1 | 0.623 | 12.4 | 0.588 | 12.4 | 2.03 | 56.6 | 0.362 | 14.2 | 0.444 | 20.7 | 0.497 | 11.7
2 | NCCCN1CCN(CCCNc2nc3ccccc3c3[nH]c4ccccc4c23)CC1 | 0.378 | 3.75 | 0.385 | – | 0.415 | – | 1.27 | 2.76 | 0.181 | 1.33 | 0.242 | 1.31 | 0.414 | 1.77 | 0.438 | 1.5 | 0.34 | 2.07 | 0.691 | 1.99
3 | C=C1C(OC/C=C/COC2O[C@@H]3O[C@@]4(C)CC[C@H]5[C@H](C)CC[C@@H](C2=C)[C@@]35OO4)O[C@@H]2O[C@@]3(C)CC[C@H]4[C@H](C)CC[C@@H]1[C@@]24OO3 (some centres not stated) | 1.72 | 17.3 | 0.0325 | > 40 | < 0.024 | 0.778 | 10.7 | 27.5 | 0.0801 | 16.2 | 5.17 | 69.6 | 0.741 | 26.2 | 10 | 25.2 | 30.8 | > 100 | 7.99 | 31.1
4 | Cc1ccc2nc(-c3ccc(N)c4ccccc34)[nH]c2c1 | 0.987 | 37.1 | 0.0382 | 2.1 | 2.46 | 13.5 | 0.054 | 0.427 | 2.68 | > 100 | 0.0958 | 1.3 | 8.58 | > 100 | 0.0607 | 1.64 | 0.721 | > 44.7 | 1.38 | –
5 | N#C/C(=C\c1c(-c2ccccc2)[nH]c2ccccc12)C(=O)c1ccccc1 | 7.16 | > 100 | 7.27 | > 100 | 1.96 | 19.4 | 4.78 | > 100 | 3.95 | > 100 | 3.98 | 32.9 | 65.3 | > 100 | 6.03 | 43.9 | 16.8 | > 100 | 3.2 | 34
6 | Clc1cc(-c2ccccc2)nc2ccccc12 | – | > 100 | – | 54.1 | – | 77.5 | – | > 100 | – | > 100 | – | 34 | – | 62.3 | – | > 100 | – | > 100 | – | 83.5
7 | Clc1ccc(CNc2nccc(-c3cnn4ncccc34)n2)cc1 | 5.95 | > 25 | 9.69 | > 25 | 5.55 | 15.5 | 7.09 | > 17 | 5.91 | > 25 | 5.85 | 19.3 | 7.47 | > 25 | 6.25 | 15.6 | 9.73 | > 25 | 6.28 | 12.8
